Assay results as given in patent publication US20090036422A1 (priority 2007, published 2009).
Where a name gives a salt, the structure may show the parent alone.

The molecules below were run against T1, human orexin-2 (hOX2) receptor (Homo sapiens, UniProt O43614) (assay: Intracellular Ca2+ mobilization assay (FLIPR), CHO(dHFr-) cells expressing hOX2, orexin-A at EC80 as agonist). Conditions: Kb=IC50/(1+[A]/EC50); CHO(dHFr-)-OX2R cells, antagonist applied 25 min before orexin-A EC80.
T1 construct: expressed in transfected cells
T1 sequence (O43614 1-444): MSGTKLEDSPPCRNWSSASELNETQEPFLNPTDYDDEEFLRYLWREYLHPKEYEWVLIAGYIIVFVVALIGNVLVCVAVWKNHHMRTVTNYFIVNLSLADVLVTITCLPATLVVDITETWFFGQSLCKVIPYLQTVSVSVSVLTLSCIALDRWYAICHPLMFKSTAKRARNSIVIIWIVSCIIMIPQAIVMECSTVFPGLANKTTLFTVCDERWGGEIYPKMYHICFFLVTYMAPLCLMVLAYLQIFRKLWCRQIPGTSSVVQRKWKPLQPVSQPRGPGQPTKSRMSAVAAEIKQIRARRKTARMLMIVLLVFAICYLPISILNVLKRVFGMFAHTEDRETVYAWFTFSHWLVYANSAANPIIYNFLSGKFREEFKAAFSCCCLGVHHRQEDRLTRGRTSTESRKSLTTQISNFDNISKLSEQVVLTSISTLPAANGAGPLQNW
Assay type: cell-based
Procedure: Intracellular Ca^2+ Mobilization Assay
The Chinese Hamster Ovary (dHFr−) mutant cell line stably expressing human orexin-1 (hOX1) or human orexin-2 (hOX2) receptors were maintained in Dulbecco's Modified Eagle Medium (1×) with GlutaMax™ 1, 4500 mg/L D-Glucose and Sodium Pyruvate (Catalog No. 31966-021, Invitrogen, Carlsbad, Calif.), 5% dialyzed fetal calf serum (Catalog No. 26400-044), 100 μg/ml penicillin and 100 μg/ml streptomycin. The cells were seeded at 5×10^4 cells/well in the poly-D-lysine treated, 96-well, black/clear-bottomed plates (Catalog No. BD356640, BD Biosciences, Palo Alto, Calif.). 24 h later, the cells were loaded for 1 h at 37° C. with 4 μM Flou-4 acetoxymethyl ester (Catalog No. F-14202, Molecular Probes, Eugene, Oreg.) in FLIPR buffer (1×HBSS, 20 mM HEPES, 2.5 mM Probenecid). Hanks' Balanced Salt Solution (HBSS) (10×) (catalog No. 14065-049) and HEPES (1M) (catalog No. 15630-056) were purchased from Invitrogen, Carlsbad, Calif. Probenecid (250 mM) (catalog No. P8761) was from Sigma, Buchs, Switzerland. The cells were washed five times with FLIPR buffer to remove excess dye and intracellular calcium mobilization, [Ca^2+]i were measured using a Fluorometric Imaging Plate Reader (FLIPR-96, Molecular Devices, Menlo Park, Calif.) as described previously (Malherbe et al., Mol. Pharmacol., 64, 823-832, 2003). Orexin A (catalog No. 1455, Toris Cookson Ltd, Bristol, UK) was used as agonist. Orexin A (50 mM stock solution in DMSO) was diluted in FLIPR buffer +0.1% BSA. The EC50 and EC80 values of orexin-A were measured daily from standard agonist concentration-response curves in CHO(dHFr−) —OX1R and —OX2R cell lines. All compounds were dissolved in 100% DMSO. Inhibition curves were determined by addition of 11 concentrations (0.0001-10 μM) of inhibitory compounds and using EC80 value of orexin-A as agonist (a concentration which gave 80% of max agonist response, determined daily). The antagonists were applied 25 min (incubation at 37° C.) before the application of the agonist. Responses were measured as peak increase in fluorescence minus basal, normalized to the maximal stimulatory effect induced by EC80 value of orexin-A or orexin-B. Inhibition curves were fitted according to the Hill equation: y=100/(1+(x/IC50)^nH), where nH=slope factor using Excel-fit 4 software (Microsoft).
Kb values were calculated according to the following equation Kb=IC50/(1+[A]/EC50) where A is the concentration of agonist added which is very close to agonist EC80 value, and IC50 and EC50 values were derived from the antagonist inhibition and orexin-A or B agonist curves, respectively.

**Q.** With `Cc1ccc(CCN(C(=O)C(NC(C)(C)CO)c2ccccc2)c2ccc(C)c(C)c2)cc1` (stereo not drawn) [Example 132, N-(3,4-Dimethyl-phenyl)-2-(2-hydroxy-1,1-dimethyl-ethylamino)-2-phenyl-N-(2-p-tolyl-ethyl)-acetamide] as the molecule, how does the Kb read?
**A.** The Kb was 0.0642 µM.

**Q.** How did the Kb turn out when `Cc1ccc(CCN(C(=O)C(NCC2OCCO2)c2ccccc2)c2ccc(C)c(C)c2)cc1` (stereo not drawn) [Example 133, N-(3,4-Dimethyl-phenyl)-2-[([1,3]dioxolan-2-ylmethyl)-amino]-2-phenyl-N-(2-p-tolyl-ethyl)-acetamide] was run?
**A.** The Kb was 0.007 µM.

**Q.** Which Kb does the source give for `Cc1ccc(CCN(C(=O)C(NC[C@@H]2CCCO2)c2ccccc2)c2ccc(C)c(C)c2)cc1` (stereo partly drawn) [Example 134, N-(3,4-Dimethyl-phenyl)-2-phenyl-2-{[(S)-1-(tetrahydro-furan-2-yl)methyl]-amino}-N-(2-p-tolyl-ethyl)-acetamide] here?
**A.** Its Kb is 0.0161 µM.

**Q.** `C=COCCNC(C(=O)N(CCc1ccc(C)cc1)c1ccc(C)c(C)c1)c1ccccc1` (stereo not drawn) [Example 135, N-(3,4-Dimethyl-phenyl)-2-phenyl-N-(2-p-tolyl-ethyl)-2-(2-vinyloxy-ethylamino)-acetamide] was tested. Which Kb did it give?
**A.** Its Kb is 0.0379 µM.

**Q.** `CCOCCNC(C(=O)N(CCc1ccc(C)cc1)c1ccc(C)c(C)c1)c1ccccc1` (stereo not drawn) [Example 136, N-(3,4-Dimethyl-phenyl)-2-(2-ethoxy-ethylamino)-2-phenyl-N-(2-p-tolyl-ethyl)-acetamide] was tested. Which Kb did it give?
**A.** Its Kb is 0.0201 µM.

**Q.** For `NC(C(=O)N(CCc1ccc(C(F)(F)F)cc1)c1ccc2c(c1)CCCC2)c1ccccc1` (stereo not drawn) [Example 137, 2-Amino-2-phenyl-N-(5,6,7,8-tetrahydro-naphthalen-2-yl)-N-[2-(4-trifluoromethyl-phenyl)-ethyl]-acetamide], which Kb is on record?
**A.** Its Kb is 0.0364 µM.

**Q.** Which Kb does the source give for `Cc1ccc(N(CCc2ccc(C(F)(F)F)cc2)C(=O)[C@@H](N)c2ccccc2)cc1C` [Example 138, (S)-2-Amino-N-(3,4-dimethyl-phenyl)-2-phenyl-N-[2-(4-trifluoromethyl-phenyl)-ethyl]-acetamide] here?
**A.** The Kb was 0.0364 µM.

**Q.** `CCOc1ccc(N(CCc2ccc(C(F)(F)F)cc2)C(=O)[C@@H](N)c2ccccc2)cc1OCC` [Example 140, (S)-2-Amino-N-(3,4-diethoxy-phenyl)-2-phenyl-N-[2-(4-trifluoromethyl-phenyl)-ethyl]-acetamide] was tested. Which Kb did it give?
**A.** The Kb was 0.0127 µM.

**Q.** With `Cc1ccc(CCN(C(=O)[C@@H](N)c2ccc(F)cc2)c2ccc(C)c(C)c2)cc1` [Example 144, (S)-2-Amino-N-(3,4-dimethyl-phenyl)-2-(4-fluoro-phenyl)-N-(2-p-tolyl-ethyl)-acetamide] as the molecule, how does the Kb read?
**A.** Its Kb is 0.0174 µM.

**Q.** Which Kb does the source give for `Cc1ccc(N(CCc2ccc(C(F)(F)F)cc2)C(=O)[C@@H](N)c2ccccc2)cc1` [Example 146, (S)-2-Amino-2-phenyl-N-p-tolyl-N-[2-(4-trifluoromethyl-phenyl)-ethyl]-acetamide] here?
**A.** Its Kb is 0.0335 µM.

**Q.** Which Kb does the source give for `N[C@H](C(=O)N(CCc1ccc(C(F)(F)F)cc1)c1ccc(OC(F)F)cc1)c1ccccc1` [Example 148, (S)-2-Amino-N-(4-difluoromethoxy-phenyl)-2-phenyl-N-[2-(4-trifluoromethyl-phenyl)-ethyl]-acetamide] here?
**A.** The Kb was 0.0217 µM.

**Q.** With `N[C@H](C(=O)N(CCc1ccc(C(F)(F)F)cc1)c1ccc2c(c1)CCCC2)c1ccccc1` [Example 150, (S)-2-Amino-2-phenyl-N-(5,6,7,8-tetrahydro-naphthalen-2-yl)-N-[2-(4-trifluoromethyl-phenyl)-ethyl]-acetamide] as the molecule, how does the Kb read?
**A.** The Kb was 0.0682 µM.

**Q.** Which Kb does the source give for `COc1cccc(N(CCc2ccc(C(F)(F)F)cc2)C(=O)[C@@H](N)c2ccccc2)c1` [Example 151, (S)-2-Amino-N-(3-methoxy-phenyl)-2-phenyl-N-[2-(4-trifluoromethyl-phenyl)-ethyl]-acetamide] here?
**A.** Its Kb is 0.0112 µM.

**Q.** For `Cc1ccc(N(CCc2ccc(C(F)(F)F)cc2)C(=O)[C@@H](N)c2ccc(F)cc2)cc1C` [Example 154, (S)-2-Amino-N-(3,4-dimethyl-phenyl)-2-(4-fluoro-phenyl)-N-[2-(4-trifluoromethyl-phenyl)-ethyl]-acetamide], which Kb is on record?
**A.** Its Kb is 0.051 µM.

**Q.** With `CN[C@H](C(=O)N(CCc1ccc(C(F)(F)F)cc1)c1ccc(C)c(C)c1)c1ccccc1OC` [Example 157, (S)—N-(3,4-Dimethyl-phenyl)-2-(2-methoxy-phenyl)-2-methylamino-N-[2-(4-trifluoromethyl-phenyl)-ethyl]-acetamide] as the molecule, how does the Kb read?
**A.** The Kb was 0.0322 µM.

**Q.** For `Cc1ccc(N(CCc2ccc(C(F)(F)F)cc2)C(=O)[C@@H](O)c2ccccc2)cc1C` [Example 159, (S)—N-(3,4-Dimethyl-phenyl)-2-hydroxy-2-phenyl-N-[2-(4-trifluoromethyl-phenyl)-ethyl]-acetamide], which Kb is on record?
**A.** The Kb was 0.0542 µM.

**Q.** For `COc1cccc(N(CCc2ccc(C(F)(F)F)cc2)C(=O)[C@@H](N)c2ccc(F)cc2)c1` [Example 160], which Kb is on record?
**A.** The Kb was 0.0291 µM.

**Q.** For `Cc1ccc(N(CCc2ccc(C(F)(F)F)cc2)C(=O)[C@@H](O)c2ccc(F)cc2)cc1C` [Example 161, (S)—N-(3,4-Dimethyl-phenyl)-2-(4-fluoro-phenyl)-2-hydroxy-N-[2-(4-trifluoromethyl-phenyl)-ethyl]-acetamide], which Kb is on record?
**A.** The Kb was 0.0908 µM.

**Q.** With `COc1cc(N(CCc2ccc(C(F)(F)F)cc2)C(=O)[C@@H](N)c2ccccc2)ccc1C` [Example 162, (S)-2-Amino-N-(3-methoxy-4-methyl-phenyl)-2-phenyl-N-[2-(4-trifluoromethyl-phenyl)-ethyl]-acetamide] as the molecule, how does the Kb read?
**A.** Its Kb is 0.0151 µM.

**Q.** Which Kb does the source give for `N[C@H](C(=O)N(CCc1ccc(C(F)(F)F)cc1)c1ccc(OC(F)F)c(Cl)c1)c1ccc(F)cc1` [Example 163, (S)-2-Amino-N-(3-chloro-4-difluoromethoxy-phenyl)-2-(4-fluoro-phenyl)-N-[2-(4-trifluoromethyl-phenyl)-ethyl]-acetamide] here?
**A.** The Kb was 0.0778 µM.

**Q.** How did the Kb turn out when `CCOc1ccc(N(CCc2ccc(C(F)(F)F)cc2)C(=O)[C@@H](N)c2ccc(F)cc2)cc1Cl` [Example 165, (S)-2-Amino-N-(3-chloro-4-ethoxy-phenyl)-2-(4-fluoro-phenyl)-N-[2-(4-trifluoromethyl-phenyl)-ethyl]-acetamide] was run?
**A.** The Kb was 0.0673 µM.

**Q.** `COc1ccc(N(CCc2ccc(C(F)(F)F)cc2)C(=O)[C@@H](N)c2ccccc2)cc1OC` [Example 173, (S)-2-Amino-N-(3,4-dimethoxy-phenyl)-2-phenyl-N-[2-(4-trifluoromethyl-phenyl)-ethyl]-acetamide hydrochloride] was tested. Which Kb did it give?
**A.** Its Kb is 0.0011 µM.

**Q.** How did the Kb turn out when `Cc1ccc(N(CCc2ccc(F)cc2)C(=O)[C@@H](N)c2ccccc2)cc1C` [Example 175, (S)-2-Amino-N-(3,4-dimethyl-phenyl)-N-[2-(4-fluoro-phenyl)-ethyl]-2-phenyl-acetamide] was run?
**A.** Its Kb is 0.0219 µM.

**Q.** `Cc1ccc(N(CCc2ccc(OC(F)(F)F)cc2)C(=O)[C@@H](N)c2ccccc2)cc1C` [Example 176, (S)-2-Amino-N-(3,4-dimethyl-phenyl)-2-phenyl-N-[2-(4-trifluoromethoxy-phenyl)-ethyl]-acetamide] was tested. Which Kb did it give?
**A.** Its Kb is 0.0505 µM.

**Q.** For `Cc1ccc(N(CCc2ccccc2F)C(=O)[C@@H](N)c2ccccc2)cc1C` [Example 180, (S)-2-Amino-N-(3,4-dimethyl-phenyl)-N-[2-(2-fluoro-phenyl)-ethyl]-2-phenyl-acetamide hydrochloride], which Kb is on record?
**A.** The Kb was 0.036 µM.

**Q.** How did the Kb turn out when `Cc1cccc(CCN(C(=O)[C@@H](N)c2ccccc2)c2ccc(C)c(C)c2)c1` [Example 181, (S)-2-Amino-N-(3,4-dimethyl-phenyl)-2-phenyl-N-(2-m-tolyl-ethyl)-acetamide hydrochloride] was run?
**A.** Its Kb is 0.0708 µM.

**Q.** How did the Kb turn out when `Cc1ccc(N(CCc2cccc(F)c2)C(=O)[C@@H](N)c2ccccc2)cc1C` [Example 182, (S)-2-Amino-N-(3,4-dimethyl-phenyl)-N-[2-(3-fluoro-phenyl)-ethyl]-2-phenyl-acetamide hydrochloride] was run?
**A.** Its Kb is 0.0283 µM.
